Assay results: PubChem BioAssay (NCI)
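Each compound was tested at five concentrations against cells in 96-well plates for 48 hours. TGI: total growth inhibition.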

Tests used:
Assay in all cases: NCI-60 cell line screen, 48 h
[1] = tested on: 786-0 renal
[2] = tested on: A498 renal
[3] = tested on: A549 NSCLC
[4] = tested on: ACHN renal
[5] = tested on: BT-549 breast
[6] = tested on: CAKI-1 renal
[7] = tested on: CCRF-CEM leukemia
[8] = tested on: COLO 205 colon
[9] = tested on: DU-145 prostate
[10] = tested on: EKVX NSCLC
[11] = tested on: HCC-2998 colon
[12] = tested on: HCT-116 colon
[13] = tested on: HCT-15 colon
[14] = tested on: HL-60(TB) leukemia
[15] = tested on: HOP-62 NSCLC
[16] = tested on: HOP-92 NSCLC
[17] = tested on: HS 578T breast
[18] = tested on: HT29 colon
[19] = tested on: IGROV1 ovarian
[20] = tested on: K-562 leukemia
[21] = tested on: KM12 colon
[22] = tested on: LOX IMVI melanoma
[23] = tested on: M14 melanoma
[24] = tested on: MCF7 breast
[25] = tested on: MDA-MB-435
[26] = tested on: MDA-N
[27] = tested on: MOLT-4 leukemia
[28] = tested on: NCI-H226 lung
[29] = tested on: NCI-H23 lung
[30] = tested on: NCI-H460 lung
[31] = tested on: NCI/ADR-RES ovarian
[32] = tested on: OVCAR-3 ovarian
[33] = tested on: OVCAR-4 ovarian
[34] = tested on: OVCAR-5 ovarian
[35] = tested on: OVCAR-8 ovarian
[36] = tested on: PC-3 prostate
[37] = tested on: RPMI-8226 leukemia
[38] = tested on: RXF 393 renal
[39] = tested on: SF-268 CNS
[40] = tested on: SF-295 CNS
[41] = tested on: SF-539 CNS
[42] = tested on: SK-MEL-2 melanoma
[43] = tested on: SK-MEL-28 melanoma
[44] = tested on: SK-MEL-5 melanoma
[45] = tested on: SK-OV-3 ovarian
[46] = tested on: SN12C renal
[47] = tested on: SNB-19 CNS
[48] = tested on: SR leukemia
[49] = tested on: SW-620 colon
[50] = tested on: T-47D breast
[51] = tested on: TK-10 renal
[52] = tested on: U251 CNS
[53] = tested on: UACC-257 melanoma
[54] = tested on: UACC-62 melanoma
[55] = tested on: UO-31 renal
[56] = tested on: MALME-3M melanoma
[57] = tested on: NCI-H522 lung
[58] = tested on: SNB-75 CNS

O=C1c2ccc3c4ccc5c6c(ccc(c7ccc(c2c37)C(=O)N1CCN1CCCCC1)c64)C(=O)N(CCN1CCCCC1)C5=O
TGI [1]: > 100 µM | TGI [2]: > 100 µM | TGI [3]: > 100 µM | TGI [4]: > 100 µM | TGI [5]: > 100 µM | TGI [6]: > 100 µM | TGI [7]: > 100 µM | TGI [8]: > 100 µM | TGI [9]: > 100 µM | TGI [10]: > 100 µM | TGI [11]: > 100 µM | TGI [12]: > 100 µM | TGI [13]: > 100 µM | TGI [14]: > 100 µM | TGI [15]: > 100 µM | TGI [16]: > 100 µM | TGI [17]: > 100 µM | TGI [18]: > 100 µM | TGI [19]: > 100 µM | TGI [20]: > 100 µM | TGI [21]: > 100 µM | TGI [22]: > 100 µM | TGI [23]: > 100 µM | TGI [24]: > 100 µM | TGI [25]: > 100 µM | TGI [26]: > 100 µM | TGI [27]: > 100 µM | TGI [28]: > 100 µM | TGI [29]: > 100 µM | TGI [30]: > 100 µM | TGI [31]: > 100 µM | TGI [32]: > 100 µM | TGI [33]: > 100 µM | TGI [34]: > 100 µM | TGI [35]: > 100 µM | TGI [36]: > 100 µM | TGI [37]: > 100 µM | TGI [38]: > 100 µM | TGI [39]: > 100 µM | TGI [40]: > 100 µM | TGI [41]: > 100 µM | TGI [42]: > 100 µM | TGI [43]: > 100 µM | TGI [44]: > 100 µM | TGI [45]: > 100 µM | TGI [46]: > 100 µM | TGI [47]: > 100 µM | TGI [48]: > 100 µM | TGI [49]: > 100 µM | TGI [50]: > 100 µM | TGI [51]: > 100 µM | TGI [52]: > 100 µM | TGI [53]: > 100 µM | TGI [54]: > 100 µM | TGI [55]: > 100 µM

Cc1ccc(S(=O)(=O)N/N=C2/C3CCC(C3)C2c2ccccc2)cc1 (stereo not given)
TGI [1]: > 100 µM | TGI [3]: > 100 µM | TGI [4]: > 100 µM | TGI [5]: > 100 µM | TGI [6]: > 100 µM | TGI [7]: > 100 µM | TGI [8]: > 100 µM | TGI [9]: > 100 µM | TGI [10]: > 100 µM | TGI [12]: > 100 µM | TGI [13]: > 100 µM | TGI [14]: > 100 µM | TGI [15]: > 100 µM | TGI [16]: > 100 µM | TGI [17]: > 100 µM | TGI [18]: > 100 µM | TGI [19]: > 100 µM | TGI [20]: > 100 µM | TGI [21]: > 100 µM | TGI [22]: > 100 µM | TGI [23]: > 100 µM | TGI [56]: > 100 µM | TGI [24]: > 100 µM | TGI [25]: > 100 µM | TGI [26]: > 100 µM | TGI [27]: > 100 µM | TGI [28]: > 100 µM | TGI [29]: > 100 µM | TGI [30]: > 100 µM | TGI [57]: > 100 µM | TGI [31]: > 100 µM | TGI [32]: > 100 µM | TGI [33]: > 100 µM | TGI [34]: > 100 µM | TGI [35]: > 100 µM | TGI [36]: > 100 µM | TGI [37]: > 100 µM | TGI [39]: > 100 µM | TGI [40]: > 100 µM | TGI [42]: > 100 µM | TGI [43]: > 100 µM | TGI [44]: > 100 µM | TGI [45]: > 100 µM | TGI [46]: > 100 µM | TGI [47]: > 100 µM | TGI [58]: > 100 µM | TGI [48]: > 100 µM | TGI [49]: > 100 µM | TGI [50]: > 100 µM | TGI [51]: > 100 µM | TGI [52]: > 100 µM | TGI [53]: > 100 µM | TGI [54]: > 100 µM | TGI [55]: > 100 µM

CCOC(=O)CCC(C(=O)OCC)n1nc2ccc(Nc3c(C)[n+]([O-])c4ccc(Cl)cc4[n+]3[O-])cc2n1 (stereo not given)
TGI [1]: 33.8 µM | TGI [2]: 56.3 µM | TGI [3]: 45.8 µM | TGI [4]: 31.9 µM | TGI [5]: > 100 µM | TGI [6]: > 100 µM | TGI [7]: > 100 µM | TGI [8]: > 100 µM | TGI [9]: 60.9 µM | TGI [10]: 41.1 µM | TGI [11]: 28 µM | TGI [12]: 57.7 µM | TGI [13]: > 100 µM | TGI [14]: > 100 µM | TGI [15]: 40.4 µM | TGI [16]: 71.4 µM | TGI [17]: 58.3 µM | TGI [18]: > 100 µM | TGI [19]: > 100 µM | TGI [20]: > 100 µM | TGI [21]: > 100 µM | TGI [22]: 30 µM | TGI [23]: > 100 µM | TGI [56]: > 100 µM | TGI [24]: 65.8 µM | TGI [25]: > 100 µM | TGI [26]: > 100 µM | TGI [27]: > 100 µM | TGI [28]: 51.5 µM | TGI [29]: 53.4 µM | TGI [30]: 33.6 µM | TGI [57]: > 100 µM | TGI [31]: 48 µM | TGI [32]: > 100 µM | TGI [33]: > 100 µM | TGI [34]: > 100 µM | TGI [35]: 65.7 µM | TGI [36]: > 100 µM | TGI [37]: > 100 µM | TGI [38]: 27.3 µM | TGI [39]: 36.3 µM | TGI [40]: 39.1 µM | TGI [41]: 43.9 µM | TGI [42]: 61 µM | TGI [44]: 76.2 µM | TGI [45]: 46.8 µM | TGI [46]: 48.4 µM | TGI [47]: 95.9 µM | TGI [48]: > 100 µM | TGI [49]: > 100 µM | TGI [50]: 55.2 µM | TGI [51]: > 100 µM | TGI [52]: 39.1 µM | TGI [53]: 70.8 µM | TGI [54]: > 100 µM | TGI [55]: 35.6 µM
